Measurements published in ChEMBL document CHEMBL4196097, “Emerging Approaches for the Identification of Protein Targets of Small Molecules - A Practitioners' Perspective” (J Med Chem, 2018).

Experiments:
Adenosine receptor A3 = biological target: T1, Adenosine receptor A3 (Homo sapiens, UniProt P0DMS8); experiment: Inhibition of adenosine A3 receptor (unknown origin)
T1 sequence (P0DMS8 whole entry): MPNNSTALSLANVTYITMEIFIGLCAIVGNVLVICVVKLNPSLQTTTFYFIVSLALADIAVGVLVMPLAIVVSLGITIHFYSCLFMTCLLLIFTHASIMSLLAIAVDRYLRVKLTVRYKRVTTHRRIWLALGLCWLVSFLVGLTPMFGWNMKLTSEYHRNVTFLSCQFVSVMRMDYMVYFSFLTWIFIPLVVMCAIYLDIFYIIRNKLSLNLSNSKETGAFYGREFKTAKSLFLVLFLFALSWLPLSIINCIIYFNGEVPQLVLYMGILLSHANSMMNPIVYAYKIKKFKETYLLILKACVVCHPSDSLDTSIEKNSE

Translocator protein = Translocator protein (Homo sapiens, UniProt P30536); experiment: Inhibition of peripheral-type benzodiazepine receptor (unknown origin)
Sequence of Translocator protein (P30536 whole entry): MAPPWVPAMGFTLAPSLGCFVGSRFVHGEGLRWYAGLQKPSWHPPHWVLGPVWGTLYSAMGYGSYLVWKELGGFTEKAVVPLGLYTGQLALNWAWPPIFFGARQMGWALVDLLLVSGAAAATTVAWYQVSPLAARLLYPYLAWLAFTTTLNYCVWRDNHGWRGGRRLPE

Structure (SMILES): COC(=O)C[C@@H]1N=C(c2ccc(Cl)cc2)c2c(sc(C)c2C)-n2c(C)nnc21
- IC50 (Adenosine receptor A3): 1400 nM
- IC50 (Translocator protein): 400 nM
